Values quoted from earlier work as cited in patent US20100143341A1, “THIENOPYRIMIDINES FOR PHARMACEUTICAL COMPOSITIONS” (DEVELOGEN AKTIENGESELLSCHAFT, priority 2005, published 2010).

Columns and labels:
human Mnk2 protein = human Mnk2 protein (Homo sapiens, UniProt Q9HBH9); conditions: described in WO 02/103361
phosphorylated eIF4E = conditions: cell culture cells transfected with Mnk2 (Mnk2a or Mnk2b) or Mnk1

Sequence of human Mnk2 protein (Q9HBH9 whole entry): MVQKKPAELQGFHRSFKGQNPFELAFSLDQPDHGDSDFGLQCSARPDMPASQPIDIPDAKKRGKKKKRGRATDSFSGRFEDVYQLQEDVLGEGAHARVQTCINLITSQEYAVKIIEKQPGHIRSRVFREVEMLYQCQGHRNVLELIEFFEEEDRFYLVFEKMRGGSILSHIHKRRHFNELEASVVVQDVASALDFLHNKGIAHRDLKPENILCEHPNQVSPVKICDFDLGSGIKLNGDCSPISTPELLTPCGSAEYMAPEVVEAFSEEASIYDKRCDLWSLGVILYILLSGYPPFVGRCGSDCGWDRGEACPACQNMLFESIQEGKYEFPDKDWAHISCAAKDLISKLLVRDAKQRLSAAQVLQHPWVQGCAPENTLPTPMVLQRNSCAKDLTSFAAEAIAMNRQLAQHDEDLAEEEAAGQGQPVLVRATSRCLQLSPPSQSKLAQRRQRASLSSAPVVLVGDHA

binds the human Mnk2 protein (human Mnk2 protein)	Compound	reduction of phosphorylated eIF4E (phosphorylated eIF4E)
binds	COC(=O)c1ccc(O)cc1 [4-hydroxybenzoic acid methyl ester]	–
–	Nc1ncnc2n[nH]c(Nc3ccc(F)cc3)c12 [CGP57380]	strong reduction
